For one data set, the species on record is Oryctolagus cuniculus. The data set is described as follows: Myocardial infarction (MI) size was calculated as a percentage of the infarct area to the total area of the left ventricle of male chinchilla rabbits. The class given is functional, Heart left ventricle. The arrangement: concentration or dose not given beside the values.
A short description of data set [1]: Lethal dose to produce acute toxicity was evaluated in white crossbred mice weighing 20-25 g. To be noted: mouse, in vivo.

SMILES strings stand for the structures.

As to `Cc1c(O)c(O)c2c(c1O)C(=O)C(SC[C@H](NC(=O)CC[C@H](N)C(=O)O)C(=O)NCC(=O)O)=C(SC[C@H](NC(=O)CC[C@H](N)C(=O)O)C(=O)NCC(=O)O)C2=O`, in the data set listed under Oryctolagus cuniculus, the Activity was 7.15%. Besides, the LD50 in data set [1] is 1350 mg/kg.
`CC(C)(C)C1=CC(=O)c2c(O)c(O)c(O)c(O)c2C1=O`: the Activity in the data set listed under Oryctolagus cuniculus is listed as 10.18%. The compound also registered an LD50 in data set [1] of 170 mg/kg.
On the same counts, the results for `CCCC1=C(O)C(=O)c2c(O)c(O)c(O)c(O)c2C1=O` are 10.08% and 80 mg/kg.
Turning to `Cc1c(O)c(O)c2c(c1O)C(=O)C(SCCO)=C(SCCO)C2=O`, the Activity in the data set listed under Oryctolagus cuniculus is reported as 9.97%. Further, in data set [1], the LD50 worked out at 150 mg/kg.
On the same counts, the results for `O=C(O)CCC1=C(O)C(=O)c2c(O)c(O)c(O)c(O)c2C1=O` are 7.9% and 95 mg/kg.
On the same counts, the results for `CCc1c(O)c(O)c2c(c1O)C(=O)C(SC[C@H](NC(=O)CC[C@H](N)C(=O)O)C(=O)NCC(=O)O)=C(SC[C@H](NC(=O)CC[C@H](N)C(=O)O)C(=O)NCC(=O)O)C2=O` are 8.35% and 1480 mg/kg.
Turning to `N[C@@H](CCC(=O)N[C@@H](CSC1=C(SC[C@H](NC(=O)CC[C@H](N)C(=O)O)C(=O)NCC(=O)O)C(=O)c2c(O)c(O)c(O)c(O)c2C1=O)C(=O)NCC(=O)O)C(=O)O`, the Activity in the data set listed under Oryctolagus cuniculus is recorded as 12.37%. The same compound gave a median lethal dose (LD50) in data set [1] of 1210 mg/kg.
Consider `CCC1=C(O)C(=O)c2c(O)c(O)c(O)c(O)c2C1=O` [ECHINOCHROME A], for which the Activity in the data set filed under Oryctolagus cuniculus was 7.76%. The compound also came in with a 50% lethal dose (LD50) in data set [1] of 87 mg/kg.
Regarding `O=[N+]([O-])OCC(CO[N+](=O)[O-])O[N+](=O)[O-]` [NITROGLYCERIN], in the data set listed under Oryctolagus cuniculus, the Activity is 15.23%.
For the compound `COc1ccc(CCN(C)CCCC(C#N)(c2ccc(OC)c(OC)c2)C(C)C)cc1OC` (stereo not drawn) [VERAPAMIL], in the data set filed under Oryctolagus cuniculus, the Activity is 6.51%.

Broadly, the LD50 is the dose at which mortality reaches 50%.

These data come from ChEMBL document CHEMBL1131646, “Synthesis of some hydroxynaphthazarins and their cardioprotective effects under ischemia-reperfusion in vivo” (Bioorg Med Chem Lett, 1998).
